Assay results published in paper PMC2909366 (Journal of biological inorganic chemistry : JBIC : a …, 2010).

Legend:
chlorite dismutase (Cld) [1] = target: T1, chlorite dismutase (Cld) (Dechloromonas aromatica (nom. nud.), UniProt Q47CX0); assay: biochemical
chlorite dismutase (Cld) [2] = target: T1, chlorite dismutase (Cld); assay: X-ray co-crystal structure; type: binding

T1 sequence (Q47CX0 35-282): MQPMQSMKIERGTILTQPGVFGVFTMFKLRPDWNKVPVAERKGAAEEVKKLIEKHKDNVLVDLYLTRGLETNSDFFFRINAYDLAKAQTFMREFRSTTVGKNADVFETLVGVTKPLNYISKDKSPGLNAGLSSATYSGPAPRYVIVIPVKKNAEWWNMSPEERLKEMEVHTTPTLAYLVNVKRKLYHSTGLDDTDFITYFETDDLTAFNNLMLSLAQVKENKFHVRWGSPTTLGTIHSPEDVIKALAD

## CC(=O)O [acetate]
Chlorite dismutase (Cld) [1]
  Kd: 36 mM

## O=NO [nitrite]
Chlorite dismutase (Cld) [2]
  Kd: 1.12 mM
